Test results taken from paper PMC5218480 (PLoS ONE, 2017).

Tested on: MV-4-11 cells
Assay: Gene expression microarray analysis (Affymetrix PrimeView) and GSEA
Type: cell-based, human
Set-up: RFU PODN (11730768_x_at) / Fold change /veh PODN (11730768_x_at) / RFU LINC00158 (11744669_a_at) / Fold change /veh LINC00158 (11744669_a_at) / RFU DUSP10 (11751237_a_at) / Fold change /veh DUSP10 (11751237_a_at) / RFU ID3 (11757404_x_at) / Fold change /veh ID3 (11757404_x_at) / RFU PLEKHG5 (11737974_s_at) / Fold change /veh PLEKHG5 (11737974_s_at) / RFU LRRC4B (11730491_at) / Fold change /veh LRRC4B (11730491_at) / RFU GIMAP4 (11747438_a_at) / Fold change /veh GIMAP4 (11747438_a_at) / RFU KRT8 (11758183_x_at) / Fold change /veh KRT8 (11758183_x_at) / RFU CNN1 (11734310_a_at) / Fold change /veh CNN1 (11734310_a_at) / RFU VPS37D (11726825_at) / Fold change /veh VPS37D (11726825_at) / RFU C10orf10 (11716522_x_at) / Fold change /veh C10orf10 (11716522_x_at) / RFU KIR2DL2 /// KIR2DL4 /// KIR2DL5A /// KIR2DL5B /// KIR2DS1 /// KIR2DS2 /// KIR2DS3 /// KIR2DS4 /// KIR3DL3 /// KIR3DL3 /// KIR3DS1 (11738374_at) / Fold change /veh KIR2DL2 /// KIR2DL4 /// KIR2DL5A /// KIR2DL5B /// KIR2DS1 /// KIR2DS2 /// KIR2DS3 /// KIR2DS4 /// KIR3DL3 /// KIR3DL3 /// KIR3DS1 (11738374_at) / RFU C1QL1 (11718748_at) / Fold change /veh C1QL1 (11718748_at) / RFU TMPRSS4 (11747572_a_at) / Fold change /veh TMPRSS4 (11747572_a_at) / RFU HAMP (11756126_x_at) / Fold change /veh HAMP (11756126_x_at) / RFU RNFT2 (11725882_a_at) / Fold change /veh RNFT2 (11725882_a_at) / RFU NR4A2 (11747474_a_at) / Fold change /veh NR4A2 (11747474_a_at) / RFU ABCC12 (11746883_a_at) / Fold change /veh ABCC12 (11746883_a_at) / RFU TMEM136 (11760407_x_at) / Fold change /veh TMEM136 (11760407_x_at) / RFU CLDN22 /// WWC2 (11732394_at) / Fold change /veh CLDN22 /// WWC2 (11732394_at) / RFU HLA-DPB1 (11760878_x_at) / Fold change /veh HLA-DPB1 (11760878_x_at) / RFU SPINT1 (11716480_a_at) / Fold change /veh SPINT1 (11716480_a_at) / RFU GAP43 (11754022_s_at) / Fold change /veh GAP43 (11754022_s_at) / RFU A4GNT (11735810_at) / Fold change /veh A4GNT (11735810_at) / RFU PRB3 (11715151_x_at) / Fold change /veh PRB3 (11715151_x_at) / RFU TUBB4B (11761932_at) / Fold change /veh TUBB4B (11761932_at) / RFU CAPN14 (11732068_a_at) / Fold change /veh CAPN14 (11732068_a_at) / RFU TMCC2 (11721928_a_at) / Fold change /veh TMCC2 (11721928_a_at) / RFU IRGQ (11745062_a_at) / Fold change /veh IRGQ (11745062_a_at) / RFU FAM174B (11720279_a_at) / Fold change /veh FAM174B (11720279_a_at) / RFU TMPRSS4 (11748680_a_at) / Fold change /veh TMPRSS4 (11748680_a_at) / RFU FAM212B (11763350_a_at) / Fold change /veh FAM212B (11763350_a_at) / RFU PLEKHG5 (11743358_a_at) / Fold change /veh PLEKHG5 (11743358_a_at) / RFU ZSCAN30 (11745921_a_at) / Fold change /veh ZSCAN30 (11745921_a_at) / RFU CMKLR1 (11741424_a_at) / Fold change /veh CMKLR1 (11741424_a_at) / RFU LOC101060620 /// MAPK8IP1 (11723275_at) / Fold change /veh LOC101060620 /// MAPK8IP1 (11723275_at) / RFU SPTSSB (11747773_x_at) / Fold change /veh SPTSSB (11747773_x_at) / RFU PRSS12 (11739890_at) / Fold change /veh PRSS12 (11739890_at) / RFU BIN1 (11741810_x_at) / Fold change /veh BIN1 (11741810_x_at) / RFU WNT11 (11732464_a_at) / Fold change /veh WNT11 (11732464_a_at) / RFU C10orf10 (11716521_a_at) / Fold change /veh C10orf10 (11716521_a_at) / RFU C5orf56 (11738089_at) / Fold change /veh C5orf56 (11738089_at) / RFU CYB561 (11721691_x_at) / Fold change /veh CYB561 (11721691_x_at) / RFU ANKRD19P (11752326_a_at) / Fold change /veh ANKRD19P (11752326_a_at) / RFU OR2T12 /// OR2T33 /// OR2T8 (11738714_s_at) / Fold change /veh OR2T12 /// OR2T33 /// OR2T8 (11738714_s_at) / RFU VCAN (11748164_a_at) / Fold change /veh VCAN (11748164_a_at) / RFU JSRP1 (11732532_at) / Fold change /veh JSRP1 (11732532_at) / RFU KRTAP10-11 (11738290_x_at) / Fold change /veh KRTAP10-11 (11738290_x_at) / RFU MYO3A (11730013_a_at) / Fold change /veh MYO3A (11730013_a_at) / RFU EBF3 (11725865_a_at) / Fold change /veh EBF3 (11725865_a_at) / RFU CAMK2N1 (11719241_x_at) / Fold change /veh CAMK2N1 (11719241_x_at) / RFU C5orf56 (11738088_a_at) / Fold change /veh C5orf56 (11738088_a_at) / RFU OLFML3 (11715873_a_at) / Fold change /veh OLFML3 (11715873_a_at) / RFU LOC100653217 /// NTM (11731650_a_at) / Fold change /veh LOC100653217 /// NTM (11731650_a_at) / RFU MAPK11 (11762145_a_at) / Fold change /veh MAPK11 (11762145_a_at) / RFU FIZ1 (11724087_x_at) / Fold change /veh FIZ1 (11724087_x_at) / RFU OASL (11726364_x_at) / Fold change /veh OASL (11726364_x_at) / RFU SOX15 (11748057_x_at) / Fold change /veh SOX15 (11748057_x_at) / RFU CD79A (11719716_a_at) / Fold change /veh CD79A (11719716_a_at) / RFU HIST1H1D (11736915_at) / Fold change /veh HIST1H1D (11736915_at) / RFU CASKIN2 (11723855_a_at) / Fold change /veh CASKIN2 (11723855_a_at) / RFU LOC730098 (11760151_x_at) / Fold change /veh LOC730098 (11760151_x_at) / RFU OR4N2 (11742367_at) / Fold change /veh OR4N2 (11742367_at) / RFU PRRT2 (11749266_a_at) / Fold change /veh PRRT2 (11749266_a_at) / RFU SNX32 (11753110_a_at) / Fold change /veh SNX32 (11753110_a_at) / RFU CDHR5 (11726645_a_at) / Fold change /veh CDHR5 (11726645_a_at) / RFU RCAN1 (11760418_a_at) / Fold change /veh RCAN1 (11760418_a_at) / RFU FAM167A (11723789_a_at) / Fold change /veh FAM167A (11723789_a_at) / RFU FAM26E (11764081_at) / Fold change /veh FAM26E (11764081_at) / RFU ISYNA1 (11749810_s_at) / Fold change /veh ISYNA1 (11749810_s_at) / RFU ACY1 (11761880_at) / Fold change /veh ACY1 (11761880_at) / RFU 11764098_at / Fold change /veh 11764098_at / RFU SAMD14 (11745864_x_at) / Fold change /veh SAMD14 (11745864_x_at) / RFU NPB (11741838_a_at) / Fold change /veh NPB (11741838_a_at) / RFU TMPRSS6 (11731388_a_at) / Fold change /veh TMPRSS6 (11731388_a_at) / RFU KRTAP10-2 (11738614_at) / Fold change /veh KRTAP10-2 (11738614_at) / RFU ARHGAP8 /// PRR5-ARHGAP8 (11727945_x_at) / Fold change /veh ARHGAP8 /// PRR5-ARHGAP8 (11727945_x_at) / RFU KRTAP5-7 /// NADSYN1 (11734609_at) / Fold change /veh KRTAP5-7 /// NADSYN1 (11734609_at) / RFU RASL12 (11751679_a_at) / Fold change /veh RASL12 (11751679_a_at) / RFU CDKN2B (11736163_a_at) / Fold change /veh CDKN2B (11736163_a_at) / RFU PRF1 (11729649_at) / Fold change /veh PRF1 (11729649_at) / RFU, ZNF638 /// ZNF638-IT1 / Fold change vs veh, ZNF638 /// ZNF638-IT1 / RFU, PANK3 / Fold change vs veh, PANK3 / RFU, SH3YL1 / Fold change vs veh, SH3YL1 / RFU, ZEB2 / Fold change vs veh, ZEB2 / RFU, NRIP1 / Fold change vs veh, NRIP1 / RFU, PTTG1IP / Fold change vs veh, PTTG1IP / RFU, CAPN2 / Fold change vs veh, CAPN2 / RFU, MED14 / Fold change vs veh, MED14 / RFU, SNORA58 / Fold change vs veh, SNORA58 / RFU, C1orf63 / Fold change vs veh, C1orf63 / RFU, LRRFIP1 / Fold change vs veh, LRRFIP1 / RFU, NDUFAF7 / Fold change vs veh, NDUFAF7 / RFU, SLC12A2 / Fold change vs veh, SLC12A2 / RFU, IBTK / Fold change vs veh, IBTK / RFU, ESF1 / Fold change vs veh, ESF1 / Fold change vs veh, TMEM50B / RFU, TAOK1 / Fold change vs veh, TAOK1 / RFU, ACBD3 / Fold change vs veh, ACBD3 / RFU, TMA16 / Fold change vs veh, TMA16 / RFU, RWDD3 / Fold change vs veh, RWDD3 / RFU, BCAT1 / Fold change vs veh, BCAT1 / RFU, EDEM3 / Fold change vs veh, EDEM3 / RFU, TMEM33 / Fold change vs veh, TMEM33 / RFU, WDR75 / Fold change vs veh, WDR75 / RFU, AHCTF1 / Fold change vs veh, AHCTF1 / RFU, TFRC / Fold change vs veh, TFRC / RFU, ZDHHC17 / Fold change vs veh, ZDHHC17 / RFU, NOM1 / Fold change vs veh, NOM1 / RFU, ARL8B / Fold change vs veh, ARL8B / RFU, ZBTB11 / Fold change vs veh, ZBTB11 / RFU, TAMM41 / Fold change vs veh, TAMM41 / RFU, KIAA1704 /// LOC100996395 / Fold change vs veh, KIAA1704 /// LOC100996395 / RFU, ING1 / Fold change vs veh, ING1 / RFU, TRMT61B / Fold change vs veh, TRMT61B / RFU, FUBP3 / Fold change vs veh, FUBP3 / RFU, TP53 / Fold change vs veh, TP53 / RFU, TNKS2 / Fold change vs veh, TNKS2 / RFU, ZFP14 / Fold change vs veh, ZFP14 / RFU, ACTR2 / Fold change vs veh, ACTR2 / RFU, PPP3R1 / Fold change vs veh, PPP3R1 / RFU, PIK3R1 / Fold change vs veh, PIK3R1 / RFU, HNRNPA1 / Fold change vs veh, HNRNPA1 / RFU, RNF170 / Fold change vs veh, RNF170 / RFU, ZNF28 / Fold change vs veh, ZNF28 / RFU, RNGTT / Fold change vs veh, RNGTT / RFU, OGT / Fold change vs veh, OGT / RFU, BRD1 / Fold change vs veh, BRD1 / RFU, MARS / Fold change vs veh, MARS / RFU, ZNF655 / Fold change vs veh, ZNF655 / RFU, FAHD1 / Fold change vs veh, FAHD1 / RFU, BDP1 / Fold change vs veh, BDP1 / RFU, LRRCC1 / Fold change vs veh, LRRCC1 / RFU, ARID1A / Fold change vs veh, ARID1A / RFU, ZNF146 / Fold change vs veh, ZNF146 / RFU, ZNF330 / Fold change vs veh, ZNF330 / RFU, GPN3 / Fold change vs veh, GPN3 / RFU, C9orf123 / Fold change vs veh, C9orf123 / RFU, N4BP2L2 / Fold change vs veh, N4BP2L2 / RFU, ARFIP1 / Fold change vs veh, ARFIP1 / RFU, FAM179B / Fold change vs veh, FAM179B / RFU, BCL10 / Fold change vs veh, BCL10 / RFU, UHRF1BP1L / Fold change vs veh, UHRF1BP1L / RFU, BET1 / Fold change vs veh, BET1 / RFU, CNOT2 / Fold change vs veh, CNOT2 / RFU, ZNF268 / Fold change vs veh, ZNF268 / Fold change vs veh, ZNF507 / RFU, DGCR2 / Fold change vs veh, DGCR2 / RFU, WDSUB1 / Fold change vs veh, WDSUB1 / Fold change vs veh, HSP90B1 /// MIR3652 / RFU, ADSS / Fold change vs veh, ADSS / RFU, GK / Fold change vs veh, GK / RFU, ZNF148 / Fold change vs veh, ZNF148 / RFU, TAF9 / Fold change vs veh, TAF9 / RFU, SLC1A5 / Fold change vs veh, SLC1A5 / RFU, SLMO2 / Fold change vs veh, SLMO2 / RFU, ABCC4 / Fold change vs veh, ABCC4 / RFU, LOC101060439 /// RAP1B / Fold change vs veh, LOC101060439 /// RAP1B / RFU, RFX7 / Fold change vs veh, RFX7 / RFU, GTPBP10 / Fold change vs veh, GTPBP10 / RFU, CNEP1R1 / Fold change vs veh, CNEP1R1 / RFU, BIVM-ERCC5 /// ERCC5 / Fold change vs veh, BIVM-ERCC5 /// ERCC5 / RFU, ILF3 / Fold change vs veh, ILF3 / RFU 11762660_at / Fold change /veh 11762660_at / RFU VCAN (11757783_s_at) / Fold change /veh VCAN (11757783_s_at) / RFU DDX43 (11728927_at) / Fold change /veh DDX43 (11728927_at) / RFU KRT8 (11758188_x_at) / Fold change /veh KRT8 (11758188_x_at) / RFU NKD1 (11759106_at) / Fold change /veh NKD1 (11759106_at) / RFU SRD5A1 (11742802_a_at) / Fold change /veh SRD5A1 (11742802_a_at) / RFU TPSAB1 /// TPSB2 (11721975_s_at) / Fold change /veh TPSAB1 /// TPSB2 (11721975_s_at) / RFU GSTM3 (11746129_a_at) / Fold change /veh GSTM3 (11746129_a_at) / RFU IL23R (11737362_x_at) / Fold change /veh IL23R (11737362_x_at) / RFU TMEM51 (11727254_a_at) / Fold change /veh TMEM51 (11727254_a_at) / RFU PIWIL2 (11732686_x_at) / Fold change /veh PIWIL2 (11732686_x_at) / RFU ORM1 (11744905_x_at) / Fold change /veh ORM1 (11744905_x_at) / RFU CCDC152 (11743942_at) / Fold change /veh CCDC152 (11743942_at) / RFU ECM1 (11717891_a_at) / Fold change /veh ECM1 (11717891_a_at) / RFU IL23R (11748794_a_at) / Fold change /veh IL23R (11748794_a_at) / RFU TNFAIP8L3 (11732012_x_at) / Fold change /veh TNFAIP8L3 (11732012_x_at) / RFU MBOAT4 (11741988_at) / Fold change /veh MBOAT4 (11741988_at) / RFU 11764193_at / Fold change /veh 11764193_at / RFU TMEM53 (11763286_at) / Fold change /veh TMEM53 (11763286_at) / RFU MAGEB2 (11727129_at) / Fold change /veh MAGEB2 (11727129_at) / RFU TMEM200A (11744735_a_at) / Fold change /veh TMEM200A (11744735_a_at) / RFU CCDC152 (11751479_a_at) / Fold change /veh CCDC152 (11751479_a_at) / RFU FAM211A (11726209_a_at) / Fold change /veh FAM211A (11726209_a_at) / RFU RGS16 (11746705_a_at) / Fold change /veh RGS16 (11746705_a_at) / RFU VCAN (11755009_s_at) / Fold change /veh VCAN (11755009_s_at) / RFU RHOB (11743442_s_at) / Fold change /veh RHOB (11743442_s_at) / RFU RGS16 (11720943_a_at) / Fold change /veh RGS16 (11720943_a_at) / RFU RGS16 (11720944_at) / Fold change /veh RGS16 (11720944_at) / RFU, VPS4B / Fold change vs veh, VPS4B / RFU, CREB1 / Fold change vs veh, CREB1 / RFU, DNAJC13 / Fold change vs veh, DNAJC13 / RFU, GNAQ / Fold change vs veh, GNAQ / RFU, CDK5R1 / Fold change vs veh, CDK5R1 / RFU, ZRANB3 / Fold change vs veh, ZRANB3 / RFU, CUL4A / Fold change vs veh, CUL4A / RFU, CCNY / Fold change vs veh, CCNY / RFU, UFL1 / Fold change vs veh, UFL1 / RFU, COG3 / Fold change vs veh, COG3 / RFU, DIAPH2 / Fold change vs veh, DIAPH2 / RFU, SKA2 / Fold change vs veh, SKA2 / RFU, AFF3 / Fold change vs veh, AFF3 / RFU, LMF1 / Fold change vs veh, LMF1 / RFU, IPO11 / Fold change vs veh, IPO11 / RFU, DFFB / Fold change vs veh, DFFB / RFU, FOXP1 / Fold change vs veh, FOXP1 / RFU, CARD8 / Fold change vs veh, CARD8 / RFU, STRN3 / Fold change vs veh, STRN3 / RFU, ADK / Fold change vs veh, ADK / RFU, RASSF2 / Fold change vs veh, RASSF2 / RFU, WIPF1 / Fold change vs veh, WIPF1 / RFU, LARP1B / Fold change vs veh, LARP1B / RFU, RASA1 / Fold change vs veh, RASA1 / RFU, RB1 / Fold change vs veh, RB1 / RFU, PPFIA1 / Fold change vs veh, PPFIA1 / RFU, MAT2A / Fold change vs veh, MAT2A / RFU, CCT5 / Fold change vs veh, CCT5 / RFU, WDR92 / Fold change vs veh, WDR92 / RFU, CUX1 / Fold change vs veh, CUX1 / RFU, TTC7A / Fold change vs veh, TTC7A / RFU, TMEM135 / Fold change vs veh, TMEM135 / RFU, DEPTOR / Fold change vs veh, DEPTOR / RFU, CPM / Fold change vs veh, CPM / RFU, DNAJB6 / Fold change vs veh, DNAJB6 / RFU, CACNA2D3 / Fold change vs veh, CACNA2D3 / RFU, DTX4 / Fold change vs veh, DTX4 / RFU, TFCP2 / Fold change vs veh, TFCP2 / RFU, GMCL1 /// GMCL1P1 / Fold change vs veh, GMCL1 /// GMCL1P1 / RFU, AEBP2 / Fold change vs veh, AEBP2 / RFU, SNHG1 /// SNORD22 /// SNORD25 /// SNORD26 /// SNORD27 /// SNORD28 /// SNORD29 /// SNORD31 / Fold change vs veh, SNHG1 /// SNORD22 /// SNORD25 /// SNORD26 /// SNORD27 /// SNORD28 /// SNORD29 /// SNORD31 / Fold change (Aza/veh), C12orf56 (ProbeSet 11735607_a_at) / Fold change (ACY-1035/veh), C12orf56 (ProbeSet 11735607_a_at) / Fold change (Aza/veh), FGFR1OP (ProbeSet 11751329_s_at) / Fold change (ACY-1035/veh), FGFR1OP (ProbeSet 11751329_s_at) / Fold change (Aza/veh), VPS36 (ProbeSet 11739960_a_at) / Fold change (ACY-1035/veh), VPS36 (ProbeSet 11739960_a_at) / RFU SYPL1 (11715823_x_at) / Fold change /veh SYPL1 (11715823_x_at) / RFU IGFBP7 (11715501_s_at) / Fold change /veh IGFBP7 (11715501_s_at) / RFU REEP3 (11722064_at) / Fold change /veh REEP3 (11722064_at) / RFU IGLL1 (11728026_x_at) / Fold change /veh IGLL1 (11728026_x_at): dose or concentration left out as unconfirmed
Settings: MV-4-11 cells, 48 hours

## Nc1ncn([C@@H]2O[C@H](CO)[C@@H](O)[C@H]2O)c(=O)n1 [azacitidine]
  RFU ARHGAP8 /// PRR5-ARHGAP8 (11727945_x_at): 97.01 RFU
